Key:
Format in all cases: biochemical
Settings in all cases: 10 μM of compound, in comparison to DMSO (0% inhibition)
CDK1 = CDK1 (Homo sapiens, UniProt P06493); assay: General kinase assay, selectivity panel: CDK1
Method: (§1) The inhibitory effect of compounds according to the present invention on the activity of protein kinases, depicted in Table 1, can be measured according to the following protocol:
(§2) Pipettinq Sequence: • 1) Add 10 μl 4 fold concentrated Substrate+4 fold concentrated ATP in 3 fold concentrated Reaction Buffer to each well of Assay Plate • 2) Add 10 μl 4 fold concentrated inhibitor in 4% DMSO in H2O to each well except to C− and C+ wells • 3) Add 10 μl 4% DMSO in H2O to C− and C+ wells • 4) Add 10 μl 500 mM EDTA in H2O to − wells • 5) Add 10 μl 50 μCi/ml Adenosine 5′-[γ-^33P]triphosphate in H2O to each well • 6) Add 10 μl 4 fold concentrated kinase in Reaction Buffer to each well • 7) Incubate 1 hr at room temperature • 8) Add 10 μl 50 mM EDTA in H2O to each well except to C− wells • 9) Prepare MAPH plates by adding 200 μl 0.75% H3PO4 to each well • 10) Exhaust 0.75% H3PO4 using Millipore vacuum station • 11) Add 60 μl 0.75% H3PO4 to each well of MAPH Filter Plate • 12) Transfer 30 μl sample per well from Assay Plate to corresponding well of MAPH Filter Plate • 13) Incubate 30 min at room temperature • 14) Wash each well of MAPH Filter Plates 3× with 200 μl 0.75% H3PO4 using Millipore vacuum station. • 15) Add 20 μl Scintillation Liquid to each well of MAPH Filter Plate • 16) Seal MAPH Filter Plate • 17) Store MAPH Filter Plate 30 min in darkness • 18) Quantify radioactivity
(§3) The activity of these protein kinases is depicted as % inhibition in the presence of 10 μM of compound in comparison to DMSO (0% inhibition).

p56 Lck = p56 Lck (Homo sapiens, UniProt P06239); assay: General kinase assay, selectivity panel: p56 Lck
Sequence of p56 Lck (P06239 whole entry): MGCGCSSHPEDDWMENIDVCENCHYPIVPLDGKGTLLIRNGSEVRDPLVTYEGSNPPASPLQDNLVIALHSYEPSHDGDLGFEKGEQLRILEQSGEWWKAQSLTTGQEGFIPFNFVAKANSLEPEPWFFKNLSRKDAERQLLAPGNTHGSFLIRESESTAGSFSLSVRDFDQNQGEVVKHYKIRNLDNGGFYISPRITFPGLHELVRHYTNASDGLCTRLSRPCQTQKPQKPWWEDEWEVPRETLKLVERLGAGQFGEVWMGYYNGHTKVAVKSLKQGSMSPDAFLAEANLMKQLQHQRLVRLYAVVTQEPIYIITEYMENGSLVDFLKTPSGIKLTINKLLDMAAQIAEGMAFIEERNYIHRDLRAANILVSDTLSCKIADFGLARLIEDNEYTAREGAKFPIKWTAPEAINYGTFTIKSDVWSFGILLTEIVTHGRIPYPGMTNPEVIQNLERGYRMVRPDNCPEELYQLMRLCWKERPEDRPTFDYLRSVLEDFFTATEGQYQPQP
Method: as §1, §2, §3

c-Kit = c-Kit (Homo sapiens, UniProt P10721); assay: General kinase assay, selectivity panel: c-Kit
Sequence of c-Kit (P10721 26-976): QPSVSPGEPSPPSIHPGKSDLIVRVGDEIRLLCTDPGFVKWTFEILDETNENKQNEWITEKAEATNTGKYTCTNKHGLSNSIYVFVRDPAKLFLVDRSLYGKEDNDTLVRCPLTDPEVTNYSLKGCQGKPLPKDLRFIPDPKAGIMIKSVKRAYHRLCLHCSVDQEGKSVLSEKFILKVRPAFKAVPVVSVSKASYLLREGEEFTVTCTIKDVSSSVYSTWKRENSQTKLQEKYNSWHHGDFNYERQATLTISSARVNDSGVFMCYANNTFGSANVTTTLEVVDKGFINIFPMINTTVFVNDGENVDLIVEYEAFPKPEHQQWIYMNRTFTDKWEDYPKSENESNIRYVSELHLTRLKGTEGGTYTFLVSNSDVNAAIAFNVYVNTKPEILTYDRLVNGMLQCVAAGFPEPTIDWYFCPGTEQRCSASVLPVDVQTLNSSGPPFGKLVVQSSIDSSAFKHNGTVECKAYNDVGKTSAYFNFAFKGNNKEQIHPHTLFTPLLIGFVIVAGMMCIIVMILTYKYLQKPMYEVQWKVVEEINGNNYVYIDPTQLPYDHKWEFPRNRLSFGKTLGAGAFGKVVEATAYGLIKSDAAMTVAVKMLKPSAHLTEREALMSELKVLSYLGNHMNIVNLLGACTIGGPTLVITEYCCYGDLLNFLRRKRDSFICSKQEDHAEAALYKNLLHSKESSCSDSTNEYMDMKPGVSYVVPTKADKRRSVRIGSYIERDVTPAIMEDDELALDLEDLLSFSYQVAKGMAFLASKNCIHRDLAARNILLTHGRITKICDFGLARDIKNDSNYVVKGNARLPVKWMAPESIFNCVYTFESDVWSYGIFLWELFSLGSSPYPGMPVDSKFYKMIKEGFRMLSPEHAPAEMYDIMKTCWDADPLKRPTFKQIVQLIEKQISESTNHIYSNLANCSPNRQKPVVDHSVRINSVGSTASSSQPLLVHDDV
Method: as §1, §2, §3

PDGFR = assay: General kinase assay, selectivity panel: PDGFR
Method: as §1, §2, §3

GSK-3β = GSK-3β (Homo sapiens, UniProt P49841); assay: General kinase assay, selectivity panel: GSK-3β
Sequence of GSK-3β (P49841 whole entry, species assumed): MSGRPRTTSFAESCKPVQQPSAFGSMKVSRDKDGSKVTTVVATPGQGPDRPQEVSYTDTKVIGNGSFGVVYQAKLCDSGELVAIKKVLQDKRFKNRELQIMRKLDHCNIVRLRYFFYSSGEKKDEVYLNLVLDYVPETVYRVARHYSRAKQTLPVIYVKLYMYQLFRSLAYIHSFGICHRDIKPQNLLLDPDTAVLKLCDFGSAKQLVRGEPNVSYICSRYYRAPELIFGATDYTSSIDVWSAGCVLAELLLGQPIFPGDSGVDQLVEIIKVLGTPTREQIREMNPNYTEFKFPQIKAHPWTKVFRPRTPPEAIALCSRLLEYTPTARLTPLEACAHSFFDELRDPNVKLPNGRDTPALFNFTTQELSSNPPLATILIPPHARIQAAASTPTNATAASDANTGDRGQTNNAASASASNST
Method: as §1, §2, §3

EGFR = EGFR (Homo sapiens, UniProt P00533); assay: General kinase assay, selectivity panel: EGFR
Sequence of EGFR (P00533 25-1210, species assumed): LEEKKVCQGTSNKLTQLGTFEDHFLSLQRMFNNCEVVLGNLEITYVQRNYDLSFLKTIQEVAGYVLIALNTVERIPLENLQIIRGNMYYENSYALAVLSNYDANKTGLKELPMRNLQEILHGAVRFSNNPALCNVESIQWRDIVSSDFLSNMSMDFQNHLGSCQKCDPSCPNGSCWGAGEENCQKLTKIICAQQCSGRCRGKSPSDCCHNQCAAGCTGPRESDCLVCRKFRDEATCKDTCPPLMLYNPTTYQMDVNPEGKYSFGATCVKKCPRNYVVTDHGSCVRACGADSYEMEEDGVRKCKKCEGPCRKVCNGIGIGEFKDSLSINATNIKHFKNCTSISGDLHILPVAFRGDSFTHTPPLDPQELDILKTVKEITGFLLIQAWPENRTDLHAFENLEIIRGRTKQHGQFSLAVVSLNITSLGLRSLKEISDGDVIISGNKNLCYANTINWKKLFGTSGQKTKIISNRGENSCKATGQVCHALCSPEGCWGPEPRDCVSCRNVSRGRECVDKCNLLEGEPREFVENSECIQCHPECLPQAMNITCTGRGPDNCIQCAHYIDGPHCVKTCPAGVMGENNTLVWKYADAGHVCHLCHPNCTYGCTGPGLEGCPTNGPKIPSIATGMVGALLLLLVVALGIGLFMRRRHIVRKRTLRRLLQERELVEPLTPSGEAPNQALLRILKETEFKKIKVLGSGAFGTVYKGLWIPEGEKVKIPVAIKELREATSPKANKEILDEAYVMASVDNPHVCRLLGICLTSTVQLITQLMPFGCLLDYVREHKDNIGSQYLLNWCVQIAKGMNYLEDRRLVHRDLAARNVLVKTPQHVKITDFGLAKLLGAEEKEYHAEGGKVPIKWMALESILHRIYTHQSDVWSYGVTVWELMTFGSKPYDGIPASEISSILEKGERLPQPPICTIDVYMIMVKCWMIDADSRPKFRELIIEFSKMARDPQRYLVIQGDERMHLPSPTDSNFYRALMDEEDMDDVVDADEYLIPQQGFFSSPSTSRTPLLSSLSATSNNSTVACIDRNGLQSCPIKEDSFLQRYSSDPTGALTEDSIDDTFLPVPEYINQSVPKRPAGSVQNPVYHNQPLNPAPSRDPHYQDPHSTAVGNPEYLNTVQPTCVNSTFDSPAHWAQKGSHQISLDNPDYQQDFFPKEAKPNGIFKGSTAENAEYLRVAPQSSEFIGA
Method: as §1, §2, §3

Abl = Abl (Homo sapiens, UniProt P00519); assay: General kinase assay, selectivity panel: Abl
Sequence of Abl (P00519 whole entry, species assumed): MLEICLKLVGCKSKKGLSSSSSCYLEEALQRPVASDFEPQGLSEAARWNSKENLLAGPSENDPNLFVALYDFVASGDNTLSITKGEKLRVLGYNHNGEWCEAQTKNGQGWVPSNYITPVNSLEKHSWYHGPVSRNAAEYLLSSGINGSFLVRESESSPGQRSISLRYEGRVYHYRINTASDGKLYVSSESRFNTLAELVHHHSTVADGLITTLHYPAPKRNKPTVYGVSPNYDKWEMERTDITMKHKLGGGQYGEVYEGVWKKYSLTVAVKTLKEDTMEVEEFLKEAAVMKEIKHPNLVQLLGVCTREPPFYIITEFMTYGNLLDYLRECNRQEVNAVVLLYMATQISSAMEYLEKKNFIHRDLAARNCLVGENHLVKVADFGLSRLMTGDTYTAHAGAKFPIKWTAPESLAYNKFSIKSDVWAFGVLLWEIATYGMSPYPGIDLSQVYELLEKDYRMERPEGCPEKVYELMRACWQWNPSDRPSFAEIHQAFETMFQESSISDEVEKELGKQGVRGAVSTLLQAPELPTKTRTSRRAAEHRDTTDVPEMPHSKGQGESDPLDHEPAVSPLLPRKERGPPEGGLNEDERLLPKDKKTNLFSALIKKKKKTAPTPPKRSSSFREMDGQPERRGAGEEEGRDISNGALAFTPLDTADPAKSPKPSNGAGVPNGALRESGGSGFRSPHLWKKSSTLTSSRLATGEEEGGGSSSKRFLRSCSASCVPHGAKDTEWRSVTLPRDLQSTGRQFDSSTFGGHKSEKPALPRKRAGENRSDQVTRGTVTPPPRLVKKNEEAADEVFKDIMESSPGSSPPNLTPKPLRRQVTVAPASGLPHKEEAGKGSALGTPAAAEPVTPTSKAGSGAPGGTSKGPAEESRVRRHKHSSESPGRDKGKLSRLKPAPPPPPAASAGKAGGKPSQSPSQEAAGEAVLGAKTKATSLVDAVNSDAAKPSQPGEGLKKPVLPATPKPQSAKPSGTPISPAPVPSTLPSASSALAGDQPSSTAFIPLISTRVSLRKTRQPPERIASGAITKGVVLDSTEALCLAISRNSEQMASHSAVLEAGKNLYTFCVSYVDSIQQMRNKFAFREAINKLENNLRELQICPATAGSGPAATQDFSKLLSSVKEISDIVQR
Method: as §1, §2, §3

Sequence of CDK1 (P06493 whole entry, species assumed): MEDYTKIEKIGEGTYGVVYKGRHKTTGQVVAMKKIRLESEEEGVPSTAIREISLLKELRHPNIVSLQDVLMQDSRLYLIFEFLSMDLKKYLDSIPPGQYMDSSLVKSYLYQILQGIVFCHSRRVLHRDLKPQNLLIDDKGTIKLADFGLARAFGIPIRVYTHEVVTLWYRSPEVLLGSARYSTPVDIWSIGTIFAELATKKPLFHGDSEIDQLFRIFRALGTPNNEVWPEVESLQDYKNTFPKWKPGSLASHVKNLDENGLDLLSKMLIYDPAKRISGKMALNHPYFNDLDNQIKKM
Sequence of CDK1 (P14635 whole entry partner, species assumed): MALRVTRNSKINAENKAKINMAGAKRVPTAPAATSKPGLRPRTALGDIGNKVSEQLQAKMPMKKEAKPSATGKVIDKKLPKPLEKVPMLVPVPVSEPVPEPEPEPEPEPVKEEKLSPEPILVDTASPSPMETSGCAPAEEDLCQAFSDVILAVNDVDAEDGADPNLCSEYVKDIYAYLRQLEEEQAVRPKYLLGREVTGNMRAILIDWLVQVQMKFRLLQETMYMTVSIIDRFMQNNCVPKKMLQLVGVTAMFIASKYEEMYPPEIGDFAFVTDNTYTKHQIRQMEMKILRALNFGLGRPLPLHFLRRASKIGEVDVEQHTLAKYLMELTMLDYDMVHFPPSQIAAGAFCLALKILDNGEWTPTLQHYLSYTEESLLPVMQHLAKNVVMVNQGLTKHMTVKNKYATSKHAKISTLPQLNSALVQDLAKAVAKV

SMILES	CDK1 (% inhibition) (CDK1)	p56 Lck (% inhibition) (p56 Lck)	c-Kit (% inhibition) (c-Kit)	PDGFR (% inhibition) (PDGFR)	GSK-3β (% inhibition) (GSK-3β)	EGFR (% inhibition) (EGFR)	Abl (% inhibition) (Abl)
COc1ccccc1-c1cc(Nc2ccc(NC(=O)c3ccc(N)cc3)cc2)ncn1 [Compound 8]	a (inhibition greater than 80%: a)	b (inhibition between 80 and 50%: b)	b (inhibition between 80 and 50%: b)	–	–	–	–
COc1ccccc1-c1cc(Nc2ccc(NC(C)=O)cc2)ncn1 [Compound 10]	a (inhibition greater than 80%: a)	b (inhibition between 80 and 50%: b)	b (inhibition between 80 and 50%: b)	c (inhibition between 50 and 30%: c)	b (inhibition between 80 and 50%: b)	b (inhibition between 80 and 50%: b)	–
Cc1ccc(Nc2cc(-c3cccc(N)c3)ncn2)cc1NS(C)(=O)=O [Compound 12]	a (inhibition greater than 80%: a)	b (inhibition between 80 and 50%: b)	b (inhibition between 80 and 50%: b)	c (inhibition between 50 and 30%: c)	a (inhibition greater than 80%: a)	a (inhibition greater than 80%: a)	–
COc1ccccc1-c1cc(Nc2ccc(N)cc2)ncn1 [Compound 22]	a (inhibition greater than 80%: a)	b (inhibition between 80 and 50%: b)	b (inhibition between 80 and 50%: b)	c (inhibition between 50 and 30%: c)	c (inhibition between 50 and 30%: c)	a (inhibition greater than 80%: a)	–
COc1ccccc1-c1cc(Nc2ccc(NC(=O)NC3CCCCC3)cc2)ncn1 [Compound 38]	b (inhibition between 80 and 50%: b)	b (inhibition between 80 and 50%: b)	b (inhibition between 80 and 50%: b)	b (inhibition between 80 and 50%: b)	c (inhibition between 50 and 30%: c)	c (inhibition between 50 and 30%: c)	–
COc1ccccc1-c1cc(Nc2ccc(NC(=O)c3ccc(N4CCN(C)CC4)cc3)cc2)ncn1 [Compound 49]	a (inhibition greater than 80%: a)	b (inhibition between 80 and 50%: b)	b (inhibition between 80 and 50%: b)	c (inhibition between 50 and 30%: c)	b (inhibition between 80 and 50%: b)	b (inhibition between 80 and 50%: b)	b (inhibition between 80 and 50%: b)
CC(C)Oc1ccccc1-c1cc(Nc2ccc(NC(=O)c3ccc(N)cc3)cc2)ncn1 [Compound 58]	a (inhibition greater than 80%: a)	a (inhibition greater than 80%: a)	–	–	a (inhibition greater than 80%: a)	b (inhibition between 80 and 50%: b)	–
COc1ccccc1-c1cc(Nc2ccc(NC(=O)CC3CCCCN3)cc2)ncn1 (stereo not shown) [Compound 59]	a (inhibition greater than 80%: a)	b (inhibition between 80 and 50%: b)	b (inhibition between 80 and 50%: b)	b (inhibition between 80 and 50%: b)	–	a (inhibition greater than 80%: a)	b (inhibition between 80 and 50%: b)
COc1ccccc1-c1cc(Nc2ccc(NC(=O)[C@H]3Cc4ccccc4CN3)cc2)ncn1 [Compound 65]	b (inhibition between 80 and 50%: b)	b (inhibition between 80 and 50%: b)	b (inhibition between 80 and 50%: b)	b (inhibition between 80 and 50%: b)	–	a (inhibition greater than 80%: a)	b (inhibition between 80 and 50%: b)
COc1ccccc1-c1cc(Nc2ccc(NC(=O)C3(N)CCCCC3)cc2)ncn1 [Compound 66]	b (inhibition between 80 and 50%: b)	b (inhibition between 80 and 50%: b)	b (inhibition between 80 and 50%: b)	b (inhibition between 80 and 50%: b)	–	a (inhibition greater than 80%: a)	b (inhibition between 80 and 50%: b)
COc1ccccc1-c1cc(Nc2ccc(NC(=O)C3(N)CCCC3)cc2)ncn1 [Compound 68]	b (inhibition between 80 and 50%: b)	b (inhibition between 80 and 50%: b)	b (inhibition between 80 and 50%: b)	b (inhibition between 80 and 50%: b)	–	a (inhibition greater than 80%: a)	b (inhibition between 80 and 50%: b)
COc1ccccc1-c1cc(Nc2ccc(NC(=O)[C@H]3CCCCN3)cc2)ncn1 [Compound 69]	b (inhibition between 80 and 50%: b)	a (inhibition greater than 80%: a)	b (inhibition between 80 and 50%: b)	b (inhibition between 80 and 50%: b)	–	a (inhibition greater than 80%: a)	b (inhibition between 80 and 50%: b)
COc1ccccc1-c1cc(Nc2ccc(NC(=O)Cc3ccccc3)cc2)ncn1 [Compound 71]	a (inhibition greater than 80%: a)	b (inhibition between 80 and 50%: b)	b (inhibition between 80 and 50%: b)	b (inhibition between 80 and 50%: b)	c (inhibition between 50 and 30%: c)	c (inhibition between 50 and 30%: c)	–
COc1ccccc1-c1cc(Nc2ccc(C(=O)NC3CCCNC3)cc2)ncn1 (stereo not shown) [Compound 86]	a (inhibition greater than 80%: a)	b (inhibition between 80 and 50%: b)	–	b (inhibition between 80 and 50%: b)	b (inhibition between 80 and 50%: b)	a (inhibition greater than 80%: a)	c (inhibition between 50 and 30%: c)
COc1ccccc1-c1cc(Nc2ccc(NC(=O)[C@H]3CCCN3)cc2)ncn1 [Compound 91]	b (inhibition between 80 and 50%: b)	b (inhibition between 80 and 50%: b)	–	b (inhibition between 80 and 50%: b)	c (inhibition between 50 and 30%: c)	a (inhibition greater than 80%: a)	b (inhibition between 80 and 50%: b)
CCCS(=O)(=O)Nc1cc(Nc2cc(-c3cccc(N)c3)ncn2)ccc1C [Compound 116]	a (inhibition greater than 80%: a)	b (inhibition between 80 and 50%: b)	–	c (inhibition between 50 and 30%: c)	a (inhibition greater than 80%: a)	a (inhibition greater than 80%: a)	–

From patent US8084457B2, “Pharmaceutically active 4,6-disubstituted aminopyrimidine derivatives as modulators of protein kinases” (Lead Discovery Center GmbH, priority 2003, dated 2011)
